Assay results from ChEMBL document CHEMBL1201862, “PubChem BioAssay data set” (2004).
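Test compounds were applied to cells in 96-well plates for 48 hours at 5 doses. Here, GI50 denotes the concentration required for 50% inhibition of growth.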 Activity calls are given as the source filed them. Rule as the data show it: active = GI50 up to about 1.1 µM and inactive = higher.

Legend:
Test in all cases: NCI anticancer screen, dose series, 48 h
HOP-92 = system: HOP-92
NCI-H460 = system: NCI-H460
SF-539 = system: SF-539
HOP-62 = system: HOP-62
SN12C = system: SN12C
K562 = system: K562
M14 = system: M14
PC-3 = system: PC-3
SR = system: SR
UACC-62 = system: UACC-62
OVCAR-5 = system: OVCAR-5
MDA-MB-231 = system: MDA-MB-231
SF-268 = system: SF-268
RPMI-8226 = system: RPMI-8226
TK-10 = system: TK-10
MDA-MB-435 = system: MDA-MB-435
ACHN = system: ACHN
DU-145 = system: DU-145
CCRF-CEM = system: CCRF-CEM
HL-60 = system: HL-60

| SMILES | GI50 (HOP-92) | GI50 (NCI-H460) | GI50 (SF-539) | GI50 (HOP-62) | GI50 (SN12C) | GI50 (K562) | GI50 (M14) | GI50 (PC-3) | GI50 (SR) | GI50 (UACC-62) | GI50 (OVCAR-5) | GI50 (MDA-MB-231) | GI50 (SF-268) | GI50 (RPMI-8226) | GI50 (TK-10) | GI50 (MDA-MB-435) | GI50 (ACHN) | GI50 (DU-145) | GI50 (CCRF-CEM) | GI50 (HL-60) |
| --- | --- | --- | --- | --- | --- | --- | --- | --- | --- | --- | --- | --- | --- | --- | --- | --- | --- | --- | --- | --- |
| Nc1ccc(N(S(=O)(=O)c2ccccc2)S(=O)(=O)c2ccccc2)c(Cl)c1 | 70.3 µM (inactive) | 34.8 µM (inactive) | 69 µM (inactive) | 63.8 µM (inactive) | 75.9 µM (inactive) | 2.98 µM (inactive) | 77.6 µM (inactive) | 35.6 µM (inactive) | 57.3 µM (inactive) | 24.8 µM (inactive) | > 100 µM (inactive) | 98.2 µM (inactive) | 69.2 µM (inactive) | 28.7 µM (inactive) | 55.1 µM (inactive) | 15.1 µM (inactive) | 66.5 µM (inactive) | 95.7 µM (inactive) | – | – |
| CCOC(=O)c1cn(-c2ccccc2)c(=S)n2c1nc1ccccc12 | 13.9 µM (inactive) | 61.4 µM (inactive) | 32.7 µM (inactive) | 53.2 µM (inactive) | > 70.1 µM (inactive) | 18.3 µM (inactive) | 38.6 µM (inactive) | 24.4 µM (inactive) | 13.6 µM (inactive) | 53.8 µM (inactive) | > 100 µM (inactive) | > 63.7 µM (inactive) | 21.7 µM (inactive) | 18.1 µM (inactive) | 96.8 µM (inactive) | 32.5 µM (inactive) | 56.1 µM (inactive) | 63.2 µM (inactive) | 5.53 µM (inactive) | – |
| CC(=O)Oc1ccc2c(c1)oc1c3ccc(OC(C)=O)cc3n(C)c(=O)c21 | 28.7 µM (inactive) | 36.3 µM (inactive) | 27.1 µM (inactive) | 34.9 µM (inactive) | 27.2 µM (inactive) | 30.5 µM (inactive) | 10.3 µM (inactive) | 22.1 µM (inactive) | 33.5 µM (inactive) | 34.8 µM (inactive) | 51.9 µM (inactive) | 27 µM (inactive) | 12.5 µM (inactive) | – | 70.8 µM (inactive) | 37.8 µM (inactive) | 37.4 µM (inactive) | 24 µM (inactive) | 18.3 µM (inactive) | – |
| COC(=O)C1=C(O)c2ccc(Cl)cc2S(=O)(=O)N1C | 59 µM (inactive) | 45.3 µM (inactive) | – | > 10 µM (inactive) | > 100 µM (inactive) | 32.1 µM (inactive) | 51.1 µM (inactive) | 83.4 µM (inactive) | > 100 µM (inactive) | > 100 µM (inactive) | > 100 µM (inactive) | > 100 µM (inactive) | 64.7 µM (inactive) | 80.7 µM (inactive) | > 100 µM (inactive) | > 100 µM (inactive) | > 100 µM (inactive) | > 100 µM (inactive) | 39.4 µM (inactive) | 33.8 µM (inactive) |
| Cc1ccc(S(=O)(=O)n2c3c(c4ccccc42)CCN2C[C@H]([C@H](C)Br)CC[C@@H]32)cc1 | > 100 µM (inactive) | > 100 µM (inactive) | > 100 µM (inactive) | > 100 µM (inactive) | – | 25.7 µM (inactive) | > 100 µM (inactive) | > 100 µM (inactive) | 4.01 µM (inactive) | > 100 µM (inactive) | > 100 µM (inactive) | > 100 µM (inactive) | > 100 µM (inactive) | 13.1 µM (inactive) | > 100 µM (inactive) | 32.1 µM (inactive) | > 100 µM (inactive) | > 100 µM (inactive) | 86.7 µM (inactive) | 6.46 µM (inactive) |
| CCC(=O)NC(NNS(=O)(=O)c1ccc(C)cc1)(C(F)(F)F)C(F)(F)F | 37.6 µM (inactive) | 33.5 µM (inactive) | 54 µM (inactive) | 65.2 µM (inactive) | – | 30.6 µM (inactive) | 37.6 µM (inactive) | 55.1 µM (inactive) | 39.4 µM (inactive) | 38.9 µM (inactive) | > 100 µM (inactive) | 30.8 µM (inactive) | 55 µM (inactive) | 54.3 µM (inactive) | 54.1 µM (inactive) | 18.7 µM (inactive) | 49.9 µM (inactive) | > 100 µM (inactive) | 63.1 µM (inactive) | 46.6 µM (inactive) |
| CC(CC(=O)O)(CC(=O)O)c1ccccc1 | > 100 µM (inactive) | > 100 µM (inactive) | – | > 100 µM (inactive) | > 100 µM (inactive) | 50.2 µM (inactive) | > 100 µM (inactive) | > 100 µM (inactive) | > 100 µM (inactive) | > 100 µM (inactive) | > 100 µM (inactive) | > 100 µM (inactive) | > 100 µM (inactive) | > 100 µM (inactive) | > 100 µM (inactive) | > 100 µM (inactive) | > 100 µM (inactive) | > 100 µM (inactive) | > 100 µM (inactive) | > 100 µM (inactive) |
| CN1C(=O)C23CCCCC2CC1(c1ccccc1)S3 (centres undefined) | 60.7 µM (inactive) | – | > 100 µM (inactive) | > 100 µM (inactive) | 94.4 µM (inactive) | 71.1 µM (inactive) | > 100 µM (inactive) | 44.1 µM (inactive) | 58.5 µM (inactive) | > 100 µM (inactive) | > 100 µM (inactive) | 71.1 µM (inactive) | > 100 µM (inactive) | 49.8 µM (inactive) | 41.2 µM (inactive) | > 100 µM (inactive) | > 100 µM (inactive) | > 100 µM (inactive) | – | 35.7 µM (inactive) |
| C=C1C(=O)O[C@H]2[C@H]1CC(=O)/C(C)=C/CC[C@@]1(C)O[C@@H]21 | 0.74 µM (active) | 10.9 µM (inactive) | 2.08 µM (inactive) | 8.36 µM (inactive) | 1.66 µM (inactive) | – | 0.37 µM (active) | 2.19 µM (inactive) | 0.541 µM (active) | 1.37 µM (inactive) | 2.15 µM (inactive) | 1.05 µM (active) | 3.45 µM (inactive) | – | 1.24 µM (inactive) | 1.53 µM (inactive) | 0.461 µM (active) | 6.5 µM (inactive) | 0.0841 µM (active) | – |
| CC(=O)OC1C(COC(=O)c2ccccc2)OC(Nc2ncc(-c3ccc(Br)cc3)s2)C(OC(=O)c2ccccc2)C1OC(=O)c1ccccc1 (centres undefined) | 93.1 µM (inactive) | > 100 µM (inactive) | – | > 100 µM (inactive) | > 100 µM (inactive) | > 100 µM (inactive) | > 100 µM (inactive) | > 100 µM (inactive) | > 100 µM (inactive) | > 100 µM (inactive) | > 100 µM (inactive) | > 100 µM (inactive) | > 100 µM (inactive) | > 100 µM (inactive) | > 100 µM (inactive) | > 100 µM (inactive) | > 100 µM (inactive) | > 100 µM (inactive) | – | – |
| CCSc1[nH]c(NC(=S)NC(=O)c2ccccc2Cl)c(C(N)=O)c1C(N)=O | > 10 µM (inactive) | – | – | > 10 µM (inactive) | > 10 µM (inactive) | > 10 µM (inactive) | > 10 µM (inactive) | > 10 µM (inactive) | > 10 µM (inactive) | > 10 µM (inactive) | – | > 10 µM (inactive) | > 10 µM (inactive) | > 10 µM (inactive) | > 10 µM (inactive) | > 10 µM (inactive) | – | > 10 µM (inactive) | > 10 µM (inactive) | > 10 µM (inactive) |
